Measured values as given in patent publication US20260001928A1 (CORTERIA PHARMACEUTICALS, priority 2022, published 2026).
*1 amine or outer side, *2 acyl side, *3 side chain or, on linkers, in order; H or OH if unused. Where a SMILES comes first, the peptide text is derived from it. Side-chain parts run from the residue outwards. [ ]: non-standard residue; d: D form. The star is where a group is joined. C18 diacid = O=C(O)CCCCCCCCCCCCCCCCC(=O)*; C16 diacid = O=C(O)CCCCCCCCCCCCCCC(=O)*; γGlu = O=C(O)[C@H](CCC(=O)[*:2])N[*:1]; C14 diacid = O=C(O)CCCCCCCCCCCCC(=O)*; Api = NC1(C(=O)O)CCNCC1; AEEA = NCCOCCOCC(=O)O; Ac3c = NC1(C(=O)O)CC1; Aib = CC(C)(N)C(=O)O; Propionyl = CCC(=O)*

Experiments:
[1] = target: T1, CFR1R receptor (Homo sapiens, UniProt P34998); assay: Activity at anti-target CFR1R receptor, cAMP assay in CRF1R-overexpression CHO-K1 cells; assay type: cell-based; conditions: 100% = Sauvagine at 100 nM; for EC50: cAMP
T1 construct: host or cells: CHO-K1 (clone 2)
T1 sequence (P34998 24-415): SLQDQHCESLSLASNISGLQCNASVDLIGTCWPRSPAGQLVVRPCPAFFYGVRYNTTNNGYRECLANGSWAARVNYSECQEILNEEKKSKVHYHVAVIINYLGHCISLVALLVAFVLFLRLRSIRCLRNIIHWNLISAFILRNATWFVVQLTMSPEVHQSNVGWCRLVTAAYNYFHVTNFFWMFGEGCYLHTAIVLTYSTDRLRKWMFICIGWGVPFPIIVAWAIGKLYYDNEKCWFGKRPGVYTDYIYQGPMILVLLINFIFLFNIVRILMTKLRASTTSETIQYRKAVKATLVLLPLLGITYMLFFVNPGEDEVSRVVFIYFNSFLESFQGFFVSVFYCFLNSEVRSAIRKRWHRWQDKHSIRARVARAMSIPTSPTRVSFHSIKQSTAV
How it was run: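 Signal is normalised to 100 nM Sauvagine, taken as 100% activation, in clone 2 cells plated at a final 4000 cells/well from frozen stocks.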

[2] = target: T2, human CRF2a receptor (Homo sapiens, UniProt Q13324); assay: Activity at human CRF2a receptor, cAMP functional assay in TeloHEAC cells; assay type: cell-based; conditions: TeloHEAC cells stably expressing human CRF2a receptor, relative to urocortin 2 (100 nM = 100%)
T2 construct: expressed in transfected cells; host or cells: TeloHEAC cells
T2 sequence (Q13324 1-411): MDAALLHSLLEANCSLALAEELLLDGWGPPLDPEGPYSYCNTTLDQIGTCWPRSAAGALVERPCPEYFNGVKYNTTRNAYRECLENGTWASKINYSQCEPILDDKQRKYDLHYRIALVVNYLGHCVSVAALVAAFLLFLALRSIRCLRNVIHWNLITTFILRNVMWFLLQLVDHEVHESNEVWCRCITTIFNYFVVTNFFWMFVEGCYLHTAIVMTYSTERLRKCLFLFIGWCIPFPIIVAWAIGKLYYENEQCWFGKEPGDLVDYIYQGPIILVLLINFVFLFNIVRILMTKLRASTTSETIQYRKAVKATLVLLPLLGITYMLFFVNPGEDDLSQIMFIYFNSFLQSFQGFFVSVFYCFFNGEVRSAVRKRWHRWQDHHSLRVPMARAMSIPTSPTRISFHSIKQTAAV
How it was run: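 cAMP accumulation was measured by HTRF 665/620 nm ratio after 30 min at 37° C compound exposure (16 twofold dilutions) of CRF2a-expressing TeloHEAC cells, 10000/well, in HEPES-buffered HBSS plus IBMX. Activity was normalised to urocortin 2 at 100 nM (100%), and EC50 was the concentration giving half-maximal activation.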

Compound | Emax (% I) [1] [% I] | EC50 [1] [nM] | EC50 [2] [nM]
CC[C@H](C)[C@H](NC(C)=O)C(=O)N[C@H](C(=O)N[C@@H](CC(C)C)C(=O)N[C@@H](CO)C(=O)N[C@@H](CC(C)C)C(=O)N[C@@H](CC(=O)O)C(=O)N[C@@H](C(=O)N1CCC[C@H]1C(=O)N[C@H](C(=O)N[C@@H](CCCCN)C(=O)N[C@@H](CC(C)C)C(=O)N[C@@H](CCCCNC(=O)CC[C@H](NC(=O)CCCCCCCCCCCCC(=O)O)C(=O)O)C(=O)N[C@@H](CCCCN)C(=O)N[C@H](C(=O)N[C@@H](CC(C)C)C(=O)N[C@@H](CC(C)C)C(=O)N[C@@H](CCC(=O)O)C(=O)N[C@@H](CCC(N)=O)C(=O)N[C@@H](CCC(=O)O)C(=O)N[C@@H](CCCCN)C(=O)N[C@@H](CCC(N)=O)C(=O)N[C@@H](CCCCN)C(=O)N[C@@H](C)C(=O)N[C@@H](CCC(N)=O)C(=O)N[C@@H](CCCNC(=N)N)C(=O)N[C@@H](CCC(=O)O)C(=O)N[C@@H](CCC(N)=O)C(=O)N[C@@H](C)C(=O)N[C@@H](CCC(=O)O)C(=O)N[C@H](C(=O)N[C@@H](CC(N)=O)C(=O)NC1(C(=O)N[C@@H](CCC(N)=O)C(=O)N[C@H](C(=O)N[C@@H](CC(C)C)C(=O)N[C@@H](C)C(=O)N[C@@H](CCC(N)=O)C(=O)N[C@H](C(N)=O)C(C)C)[C@@H](C)CC)CCNCC1)[C@@H](C)O)[C@@H](C)CC)[C@@H](C)CC)C(C)C)C(C)C [compound 169] (Ac-IVLSLD[dV]PIKLK([γGlu-C14 diacid])KILLEQEKQKAQREQAETN[Api]QILAQV-NH2) | 13 | > 250 | 1.34
CCC(=O)N[C@H](C(=O)N[C@@H](CC(C)C)C(=O)N[C@@H](CO)C(=O)N[C@@H](CC(C)C)C(=O)N[C@@H](CC(=O)O)C(=O)N[C@@H](C(=O)N1CCC[C@H]1C(=O)N[C@H](C(=O)N[C@@H](CCCCN)C(=O)N[C@@H](CC(C)C)C(=O)N[C@@H](CCCCNC(=O)CC[C@H](NC(=O)CCCCCCCCCCCCCCC(=O)O)C(=O)O)C(=O)N[C@@H](CCCCN)C(=O)N[C@H](C(=O)N[C@@H](CC(C)C)C(=O)N[C@@H](CC(C)C)C(=O)N[C@@H](CCC(=O)O)C(=O)N[C@@H](CCC(N)=O)C(=O)N[C@@H](CCC(=O)O)C(=O)N[C@@H](CCCCN)C(=O)N[C@@H](CCC(N)=O)C(=O)N[C@@H](CCCCN)C(=O)N[C@@H](CCCCN)C(=O)N[C@@H](CCC(N)=O)C(=O)N[C@@H](CCCNC(=N)N)C(=O)N[C@@H](CCC(=O)O)C(=O)N[C@@H](CCC(N)=O)C(=O)N[C@@H](C)C(=O)N[C@@H](CCC(=O)O)C(=O)N[C@H](C(=O)N[C@@H](CC(N)=O)C(=O)N[C@@H](CCCCN)C(=O)N[C@@H](CCC(N)=O)C(=O)N[C@H](C(=O)N[C@@H](CC(C)C)C(=O)N[C@@H](C)C(=O)N[C@@H](CCC(N)=O)C(=O)N[C@H](C(N)=O)C(C)C)[C@@H](C)CC)[C@@H](C)O)[C@@H](C)CC)[C@@H](C)CC)C(C)C)C(C)C [compound 35] (Propionyl-VLSLD[dV]PIKLK([γGlu-C16 diacid])KILLEQEKQKKQREQAETNKQILAQV-NH2) | 13 | > 250 | 0.23
CC[C@H](C)[C@H](NC(C)=O)C(=O)N[C@H](C(=O)N[C@@H](CC(C)C)C(=O)N[C@@H](CO)C(=O)N[C@@H](CC(C)C)C(=O)N[C@@H](CC(=O)O)C(=O)N[C@@H](C(=O)N1CCC[C@H]1C(=O)N[C@H](C(=O)N[C@@H](CCCCN)C(=O)N[C@@H](CC(C)C)C(=O)N[C@@H](CCCCNC(=O)CC[C@H](NC(=O)CCCCCCCCCCCCCCC(=O)O)C(=O)O)C(=O)N[C@@H](CCCCN)C(=O)N[C@H](C(=O)N[C@@H](CC(C)C)C(=O)N[C@@H](CC(C)C)C(=O)N[C@@H](CCC(=O)O)C(=O)N[C@@H](CCC(N)=O)C(=O)N[C@@H](CCC(=O)O)C(=O)N[C@@H](CCCCN)C(=O)N[C@@H](CCC(N)=O)C(=O)N[C@@H](CCCCN)C(=O)N[C@@H](CCCCN)C(=O)N[C@@H](CCC(N)=O)C(=O)N[C@@H](CCCNC(=N)N)C(=O)N[C@@H](CCC(=O)O)C(=O)N[C@@H](CCC(N)=O)C(=O)N[C@@H](C)C(=O)N[C@@H](CCC(=O)O)C(=O)N[C@H](C(=O)N[C@@H](CC(N)=O)C(=O)NC1(C(=O)N[C@@H](CCC(N)=O)C(=O)N[C@H](C(=O)N[C@@H](CC(C)C)C(=O)N[C@@H](C)C(=O)N[C@@H](CCC(N)=O)C(=O)N[C@H](C(N)=O)C(C)C)[C@@H](C)CC)CC1)[C@@H](C)O)[C@@H](C)CC)[C@@H](C)CC)C(C)C)C(C)C [compound 61] (Ac-IVLSLD[dV]PIKLK([γGlu-C16 diacid])KILLEQEKQKKQREQAETN[Ac3c]QILAQV-NH2) | 3 | > 250 | 0.36

Next, values leading:

Emax (% I) [1] [% I] | EC50 [1] [nM] | EC50 [2] [nM] | Compound
5 | > 250 | 18.9 | CC[C@H](C)[C@H](NC(C)=O)C(=O)N[C@H](C(=O)N[C@@H](CC(C)C)C(=O)N[C@@H](CO)C(=O)N[C@@H](CC(C)C)C(=O)N[C@@H](CC(=O)O)C(=O)N[C@@H](C(=O)N1CCC[C@H]1C(=O)N[C@H](C(=O)N[C@@H](CCCCN)C(=O)N[C@@H](CC(C)C)C(=O)N[C@@H](CCCCNC(=O)COCCOCCNC(=O)COCCOCCNC(=O)CC[C@H](NC(=O)CC[C@H](NC(=O)CCCCCCCCCCCCC(=O)O)C(=O)O)C(=O)O)C(=O)N[C@@H](CCCCN)C(=O)N[C@H](C(=O)N[C@@H](CC(C)C)C(=O)N[C@@H](CC(C)C)C(=O)N[C@@H](CCC(=O)O)C(=O)N[C@@H](CCC(N)=O)C(=O)N[C@@H](CCC(=O)O)C(=O)N[C@@H](CCCCN)C(=O)N[C@@H](CCC(N)=O)C(=O)N[C@@H](CCCCN)C(=O)N[C@@H](CCCCN)C(=O)N[C@@H](CCC(N)=O)C(=O)N[C@@H](CCCNC(=N)N)C(=O)N[C@@H](CCC(=O)O)C(=O)N[C@@H](CCC(N)=O)C(=O)N[C@@H](C)C(=O)N[C@@H](CCC(=O)O)C(=O)N[C@H](C(=O)N[C@@H](CC(N)=O)C(=O)NC1(C(=O)N[C@@H](CCC(N)=O)C(=O)N[C@H](C(=O)N[C@@H](CC(C)C)C(=O)N[C@@H](C)C(=O)N[C@@H](CCC(N)=O)C(=O)N[C@H](C(N)=O)C(C)C)[C@@H](C)CC)CCNCC1)[C@@H](C)O)[C@@H](C)CC)[C@@H](C)CC)C(C)C)C(C)C [compound 175] (Ac-IVLSLD[dV]PIKLK([AEEA-AEEA-γGlu-γGlu-C14 diacid])KILLEQEKQKKQREQAETN[Api]QILAQV-NH2)
9 | > 250 | 2.2 | CC[C@H](C)[C@H](NC(C)=O)C(=O)N[C@H](C(=O)N[C@@H](CC(C)C)C(=O)N[C@@H](CO)C(=O)N[C@@H](CC(C)C)C(=O)N[C@@H](CC(=O)O)C(=O)N[C@@H](C(=O)N1CCC[C@H]1C(=O)N[C@H](C(=O)N[C@@H](CCCCN)C(=O)N[C@@H](CC(C)C)C(=O)N[C@@H](CCCCNC(=O)COCCOCCNC(=O)COCCOCCNC(=O)CC[C@H](NC(=O)CCCCCCCCCCCCCCCCC(=O)O)C(=O)O)C(=O)N[C@@H](CCCCN)C(=O)N[C@H](C(=O)N[C@@H](CC(C)C)C(=O)N[C@@H](CC(C)C)C(=O)N[C@@H](CCC(=O)O)C(=O)N[C@@H](CCC(N)=O)C(=O)N[C@@H](CCC(=O)O)C(=O)N[C@@H](CCCCN)C(=O)N[C@@H](CCC(N)=O)C(=O)N[C@@H](CCCCN)C(=O)NC(C)(C)C(=O)N[C@@H](CCC(N)=O)C(=O)N[C@@H](CCCNC(=N)N)C(=O)N[C@@H](CCC(=O)O)C(=O)N[C@@H](CCC(N)=O)C(=O)N[C@@H](C)C(=O)N[C@@H](CCC(=O)O)C(=O)N[C@H](C(=O)N[C@@H](CC(N)=O)C(=O)NC1(C(=O)N[C@@H](CCC(N)=O)C(=O)N[C@H](C(=O)N[C@@H](CC(C)C)C(=O)N[C@@H](C)C(=O)N[C@@H](CCC(N)=O)C(=O)N[C@H](C(N)=O)C(C)C)[C@@H](C)CC)CCNCC1)[C@@H](C)O)[C@@H](C)CC)[C@@H](C)CC)C(C)C)C(C)C [compound 196] (Ac-IVLSLD[dV]PIKLK([AEEA-AEEA-γGlu-C18 diacid])KILLEQEKQK[Aib]QREQAETN[Api]QILAQV-NH2)
